Entries after “also recorded” stand apart in the source; their conditions may differ. Ends that are not written are not given here. * marks the point of attachment. Biotin = O=C1N[C@H]2[C@H](CS[C@H]2CCCCC(=O)*)N1
Assays:
E. coli MG1655 = test: Pyruvate assay: E. coli growth (OD595); assay type: cell-based; conditions: 32 µM LfcinB
Source text: To confirm one of the mechanisms of LfcinB action in pyruvate metabolism, a minimal medium was chosen; because general LB medium contains many carbon sources, including sugars, alcohols and organic acids, this minimal medium allowed glucose to be the sole carbon source in the pyruvate assays. Minimal medium consisted of 6 g/l NaH2PO4, 3 g/l K2HPO4, 0.5 g/l NaCl, 0.12 g/l MgSO4, 1 g/l NH4Cl, 0.01 g/l CaCl2 and 5 g/l glucose. A 0.22 µm filter (Millex®GS, Millipore) was used to filter the minimal medium. E. coli MG1655 was first inoculated into the minimal medium and incubated at 37°C for 16 h with shaking as a preculture. The preculture was diluted 100-fold with the minimal medium in 96-well plate, and 32 µM of LfcinB were added. The mixture was incubated with shaking in a microplate reader at 37°C, and the absorbance was measured after 9 h. Finally, the mixture was harvested by centrifugation at 3452 g for 5 min at 4°C, and each supernatant was removed. The pellets were then stored at −80°C.

YcaO = test: Fluorescence polarization assay, YcaO; assay type: binding, E. coli; conditions: 100 nM DyLight 549-labeled LfcinB; protein 0.025-0.4 µM; data not shown
Source text: (§1) FP assays, investigations of the binding between two molecules in a homogeneous aqueous environment, were used to validate the identified 153 proteins. […] If a fluorophore only binds to a small molecule, such as peptide, the rotation of the complex is fast and the light emits in a different plane of polarization. Therefore, the degree of polarization is low. However, once a fluorophore binds to a large molecule, the bound complex is stimulated with polarized light. The light emits in the same polarized plane, and the complex is maintained in the same plane of polarization, causing an increase in the degree of polarization [22]–[24]. The amount of molecules binding to a fluorophore influences the degree of polarization. In this study, LfcinB was labeled with DyLight™ 549 as a reference value. Once the protein bound to LfcinB, like a fluorophore binds to a large molecule, a high degree of polarization is expected.
(§2) Before the assays, LfcinB was labeled with DyLight™ 549 and tested proteins were quantified with a Pierce® bicinchoninic acid (BCA™) protein assay (Thermo). To label the LfcinB, DyLight™ 549-NHS ester and LfcinB (68∶1, mole/mole) were mixed in PBS at room temperature for 1 h, a D-Salt™ polyacrylamide desalting column (Thermo) was used to remove excess dye and the labeling efficiency of the eluted solution was calculated. […]

MetL = test: Fluorescence polarization assay, MetL; assay type: binding, E. coli
Source text: as §1, §2

E. coli K-12 MG1655 = test: E. coli growth inhibition (growth curves, OD595); assay type: cell-based; conditions: 22.4 µM, approx. 10^7 CFU/ml, LB medium, 37°C with shaking, OD595 every 20 min for 7 h 20 min, PBS negative control, Figure 2
Description: The E. coli K-12 MG1655 strain was first inoculated into LB medium and incubated at 37°C with shaking for 16 h. After incubation, the culture was diluted to approximately 10^7 CFU/ml using LB medium. Then, 22.4 µM of N-terminal biotinylated LfcinB (Kelowna Inc.), LfcinB (Kelowna Inc.) or biotin (Thermo) were individually added to the diluted cultures in a 96-well plate. PBS was used as a negative control. Finally, each compound or PBS with E. coli was incubated at 37°C with shaking and the growth curves were observed by measuring the OD595 value every 20 min for 7 h 20 min in a microplate reader (Synergy 2, BioTek®).

Adi = test: Fluorescence polarization assay, Adi; assay type: binding, E. coli; conditions: 100 nM DyLight 549-labeled LfcinB; protein 0.025-0.4 µM; data not shown
Source text: as §1, §2

[1] = system: Bovine Serum Albumin, BSA; test: Fluorescence polarization assay, BSA negative control; assay type: binding; conditions: BSA 0.4, 0.2, 0.1, 0.05 µM (negative control); 100 nM labeled LfcinB
Source text: as §1, §2

[2] = system: E. coli K-12 BW25113 (isogenic parent) strain; test: Knockout assay, isogenic parent strain; assay type: cell-based; conditions: 32 µM LfcinB, LB medium, 37°C, approx. 10^7 CFU/ml
Description: The E. coli K-12 BW25113 (isogenic parent) strain and the 16 knockout strains were obtained from the E. coli Genetic Resources at the Coli Genetic Stock Center (CGSC) at Yale University. The strains were inoculated into LB medium, and incubated at 37°C with shaking. After 16 h of incubation, the cultures were diluted to approximately 10^7 CFU/ml with LB medium. Thirty-two µM of LfcinB were then added to the cultures in a 96-well plate. PBS was used as a negative control. Cultures with LfcinB or PBS were then incubated at 37°C with shaking in a microplate reader and the growth was observed by measuring the OD595 value every 20 min for 7 h 20 min.

YjbM = test: Fluorescence polarization assay, YjbM; assay type: binding, E. coli; conditions: 100 nM DyLight 549-labeled LfcinB; protein 0.025-0.4 µM; data not shown
Source text: as §1, §2

Lactoferricin B (Biotin-FKCRRWQWRMKKLGAPSITCVRRAF; ends and bridges not checked) [LfcinB]
Value of OD595 after 9 h incubation (E. coli MG1655; minimal medium with glucose, 37°C, 9 h, E. coli without LfcinB 0.325±0.011): 0.267±0.011
Initial value of OD595 (E. coli MG1655; minimal medium with glucose, 37°C, E. coli without LfcinB 0.057±0.002): 0.058±0.001
amount (OD595) of E. coli after 9 h with vs without LfcinB (E. coli MG1655; minimal medium, 9 h): lower than the level of E. coli without LfcinB
binding to YcaO (YcaO): confirmed to bind to LfcinB
degree of polarization vs BSA (MetL; 100 nM DyLight 549-labeled LfcinB, protein 0.025-0.4 µM, PBS, 0.005% BSA, 0.01% Triton X-100, room temperature, 1 h, Figure 5C): higher polarization than the negative control
concentration dependence of polarization (MetL; MetL, two-fold dilution 0.4 µM to 0.025 µM, 100 nM labeled LfcinB): increased with increasing concentrations of these 4 proteins
growth curves / inhibition of E. coli growth (E. coli K-12 MG1655): exhibited the same inhibition of E. coli growth; also recorded: exhibit the same antibacterial activity
binding to Adi (Adi): confirmed to bind to LfcinB
concentration dependence of polarization [1]: remained constant with increasing concentrations of BSA
growth with LfcinB [2]: inhibited the growth of the isogenic parent strain
binding to YjbM (YjbM): confirmed to bind to LfcinB

Reference: PMC3229523, “Identification of Lactoferricin B Intracellular Targets Using an Escherichia coli Proteome Chip” (PLoS ONE, 2011)
